Assay [1] is described as follows: Antihypertensive activity: systolic blood pressure, tail cuff method, spontaneously hypertensive rats. Format: in vivo. Particulars: spontaneously hypertensive rats (systolic blood pressure >180 mmHg). The method, then:
Systolic blood pressures were recorded by a modification of the tail cuff method described by I. M. Claxton, M. G. Palfreyman, R. H. Poyser, R. L. Whiting, European Journal of Pharmacology, 37, 179 (1976). A W+W BP recorder, model 8005 was used to display pulses. Prior to all measurements rats were placed in a heated environment (33.5°±0.5° C.) before transfer to a restraining cage. Each determination of blood pressure was the mean of at least 5 readings. Spontaneously hypertensive rats (ages 12-18 weeks) with systolic blood pressures >180 mmHg were considered hypertensive.

Assay [2] has as its system guinea-pig isolated trachealis. The assay can be described thus: Bronchodilator activity: inhibition of spontaneous tone in guinea-pig isolated trachealis. Particulars: Cavia porcellus; tracheal spirals, Krebs solution 37° C.; relaxation as percentage of total relaxation with 10^-3 M isoprenaline. How it is done:
Male guinea pigs (300-600 g) were stunned by a blow to the head and bled from the carotid artery. The trachea was exposed, dissected free of connective tissue, and transferred to oxygenated Krebs solution at 37° C. Next, spirals (2 per trachea) were prepared by cutting the whole trachea spirally along its longitudinal axis and then dividing this spiral lengthwise. Each preparation was mounted, using silk thread, in a 10 ml organ bath filled with Krebs solution at 37° C. and bubbled with 5% CO2 with O2. The resting tension of the preparations was set at 2 g and changes in muscle tension were monitored isometrically by means of a UFI (2 oz) force and displacement transducer (Ormed Ltd) connected to a Linseis pen recorder. All preparations were allowed to equilibrate for 60 minutes. During this equilibration period the preparations were washed by upward displacement at 15 minute intervals and, if necessary, the resting tension was readjusted to 2 g using a mechanical micromanipulator system.
Once a steady resting tension had been obtained, the preparations were dosed […] with the test compound (10^-8 -2×10^-5 M), and finally a maximum relaxation achieved by addition of 10^-3 M isoprenaline. The fall in tension evoked by the test compound was expressed as a percentage of the total relaxation evoked in the presence of […]. Appropriate concentration-relaxation curves were then constructed and values for potency (IC50) were obtained.
[The composition of Krebs solution is: sodium chloride 118.07 mM, sodium hydrogen carbonate 26.19 mM, potassium chloride 4.68 mM, potassium orthophosphate 1.18 mM, magnesium sulphate septahydrate 1.8 mM and calcium chloride 2.52 mM;pH ca. 7.45.]

Take `CC1(C)Oc2ccc(C#N)cc2[C@@H](Nc2c(N)c(=O)c2=O)[C@@H]1O` (relative stereo) [Example 1]: in assay [1] (3 mg/kg p.o.), the “lowers blood pressure by” value was 50%. In addition, in assay [2], 3.7 µM corresponded to half-maximal inhibition (IC50).
Turning to `CNc1c(N[C@@H]2c3cc(C#N)ccc3OC(C)(C)[C@H]2O)c(=O)c1=O` (relative stereo) [Example 2], in assay [1] (3 mg/kg p.o.), the “lowers blood pressure by” value turned out to be 17%. Further, inhibition in assay [2] was half-maximal at 4 µM (IC50).
Turning to `CN(c1c(N)c(=O)c1=O)[C@@H]1c2cc(C#N)ccc2OC(C)(C)[C@H]1O` (relative stereo) [Example 3, trans-N'-[4-(6-Cyano-3,4-dihydro-2,2-dimethyl-2H-1-benzopyran-3-ol)]-2-amino-1-methylaminocyclobutene-3,4-dione], the “lowers blood pressure by” value in assay [1] (3 mg/kg p.o.) was found to be 58%. In assay [2], the IC50 – broadly, the midpoint of a concentration-inhibition curve – is 3.1 µM.
For `CCc1ccc2c(c1)[C@@H](N(C)c1c(N)c(=O)c1=O)[C@H](O)C(C)(C)O2` [Example 12, trans-(3S,4R)-N^1-[4-(6-Ethyl-3,4-dihydro-2,2-dimethyl-2H-1-benzopyran-3-ol)]-2-amino-1-methylaminocyclobutene-3,4-dione], the “lowers blood pressure by” value in assay [1] (0.05 mg/Kg p.o.) came to 24%.

The record behind these values is patent US5147866A, “1,2-diamino-cyclobuten-3,4-dione derivatives” (Beecham Group p.l.c., priority 1989, dated 1992).
